{"source": "paper PMC11696429", "about": "(ACS Omega, 2024)", "assay_type_in_all_cases": "binding", "key": {"integrin αvβ3 [1]": {"target": "T1, integrin αvβ3 (Homo sapiens, UniProt P05106+P06756)", "settings": "for IC50: IC50 (competitive displacement), day 7, competitor [^125I]I-echistatin"}, "integrin αvβ3 [2]": {"target": "T1, integrin αvβ3"}, "integrin αvβ3 [3]": {"target": "T1, integrin αvβ3", "remark": "listed apart in the source"}}, "note": "Read-outs that look alike come from different tables or passages of the source.", "data": [{"smiles": "N=C(N)NCCC[C@@H]1NC(=O)[C@H](CCCCNC(=O)CCOCCOCCOCCOCCOCCOCCNC(=O)CC[C@H](C(=O)O)N2CCN(CC(=O)O)CCN(CC(=O)O)CC2)NC(=O)[C@@H](Cc2ccccc2)NC(=O)[C@H](CC(=O)O)NC(=O)CNC1=O", "note": "[NODAGA-PEG5-c(RGDfK), NODAGA-PEG5-c(Arg-Gly-Asp-D-Phe-Lys)]", "values": [{"measurement": "IC50", "setting": "integrin αvβ3 [1]; U87MG spheroids generated with collagen-1 supplementation", "result": "20.5 ± 4.41", "unit": "µM"}, {"measurement": "IC50", "setting": "integrin αvβ3 [1]; U87MG spheroids generated without supplementation", "result": "16.5 ± 2.88", "unit": "µM"}, {"measurement": "reduced interaction in 3D spheroids compared to 2D monolayer (fold)", "setting": "integrin αvβ3 [1]; IC50 in 3D U87MG spheroids vs 2D monolayer cell system", "result": "5–7 fold"}, {"measurement": "IC50", "setting": "integrin αvβ3 [2]", "result": "3.08 ± 0.12", "unit": "µM"}, {"measurement": "IC50", "setting": "integrin αvβ3 [3]", "result": "10.4 ± 0.89", "unit": "µM"}, {"measurement": "change of IC50 value by BME", "setting": "integrin αvβ3 [3]; 2D monolayer with BME vs without BME supplementation", "result": "triplication"}]}]}
